Reference: patent publication US20240025919A1, “AZA-TETRACYCLIC OXAZEPINE COMPOUNDS AND USES THEREOF” (Genentech, Inc., priority 2022, published 2024)
Read-outs that look alike come from different tables or passages of the source.

Tests used:
[1] = system: H1975 (KRAS wild type human lung adenocarcinoma cell line); experiment: KRAS 3D-Cell Proliferation Assay, H1975 (CellTiter-Glo 3D, 7 days); assay type: cell-based; settings: H1975 3D culture, read-out: Prolif H1975 3D ATP IC50
Description: (§1) Example 503: KRAS 3D-Cell Proliferation Assays. Cellular potencies of compounds are assessed by evaluating inhibition of proliferation in 3D cultures of homozygous mutant KRAS G12D human pancreatic cell lines (AsPC-1 and HPAC) as compared to a KRAS wild type human lung adenocarcinoma cell line (PC-9 and/or H1975). Cells are seeded into 384-well black round-bottom, ultra-low attachment assay plates in 50 uL cell growth medium (RPMI-1640 with 10% fetal bovine serum and 2 mM L-glutamine). After overnight incubation at 37° C. and 5% CO2, compounds solubilized in DMSO are added as dilution series to the wells in a total volume of 150 nL (0.3% DMSO final). The cells are incubated for 7 days at 37° C. and 5% CO2. Cell proliferation is quantitated by addition of 40 uL/well of CellTiter-GloO 3D (Promega), and the well contents are mixed 20× at high speed using liquid handling automation workstation (Bravo with 384-well head) and centrifuged at 1500 rpm for 2 minutes to eliminate bubbles. This reagent in combination with mechanical disruption releases the cellular ATP to promote activity in a luciferase-based enzyme/substrate chemiluminescent detection system. After a 30-minute incubation under ambient conditions with shaking and an additional 10 minutes without shaking, the luminescence is read on a plate reader (e.g. EnVision [PerkinElmer]). The results are normalized to percent inhibition based on the following control samples: DMSO (0% inhibition) and 1 uM staurosporine (100% inhibition). The normalized luminescence results are plotted against compound concentration, and the data are fit to a 4-parameter Hill equation to determine the IC50 values.

KRAS G12D = KRAS G12D (Homo sapiens (Human), UniProt P01116, G12D); experiment: KRAS G12D LoEnz Biochemical Assay, BODIPY-GDP Exchange TR-FRET (SOS1-mediated nucleotide exchange); settings: read-out: KRas (G12D) GDP HTRF IC50
Sequence of KRAS G12D (P01116-2 other isoform, or with tags, fused parts or gaps G12D): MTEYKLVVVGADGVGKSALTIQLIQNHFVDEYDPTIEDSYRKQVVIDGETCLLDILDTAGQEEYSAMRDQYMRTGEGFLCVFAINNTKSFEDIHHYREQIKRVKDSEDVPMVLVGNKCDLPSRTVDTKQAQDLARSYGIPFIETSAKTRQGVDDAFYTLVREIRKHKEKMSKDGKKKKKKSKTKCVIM

KRAS WT [2] = molecular target: T1, KRAS WT (Homo sapiens (Human), UniProt P01116); experiment: KRAS WT Biochemical Assay, BODIPY-GDP Exchange TR-FRET (Example 502; 0.06 nM KRAS WT, 15 nM GDP, 300 nM SOS1, 120-minute incubation); settings: read-out: KRas HTRF IC50
T1 sequence (P01116-2 other isoform, or with tags, fused parts or gaps): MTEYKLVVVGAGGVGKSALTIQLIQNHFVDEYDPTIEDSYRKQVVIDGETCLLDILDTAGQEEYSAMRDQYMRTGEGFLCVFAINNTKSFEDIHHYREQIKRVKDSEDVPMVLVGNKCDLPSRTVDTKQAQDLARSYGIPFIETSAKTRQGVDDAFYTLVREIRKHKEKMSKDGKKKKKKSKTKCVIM
How it was run: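 Biotin-tagged recombinant KRAS WT (0.06 nM) preloaded with 15 nM GDP and Tb-streptavidin, 10 min RT, then exchange started with 300 nM SOS1 plus 300 nM BODIPY-GDP in HEPES pH 7.5 buffer with MgCl2. TR-FRET 520/490 ratio read after 120 min; normalized to DMSO and full-inhibition control; IC50 from 4-parameter fit.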

[3] = system: HPAC (homozygous mutant KRAS G12D human pancreatic cell line); experiment: KRAS 3D-Cell Proliferation Assay, HPAC (CellTiter-Glo 3D, 7 days); assay type: cell-based; settings: HPAC 3D culture, read-out: Prolif HPAC 3D ATP IC50
Description: as §1

KRAS WT [4] = molecular target: T1, KRAS WT; experiment: KRAS WT Biochemical Assay, BODIPY-GDP Exchange TR-FRET (Example 501; 3 nM KRAS WT, 3 nM SOS1, 60-minute incubation)
How it was run: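 SOS1-mediated exchange assay: 3 nM biotin-KRAS WT with terbium-streptavidin, started with 3 nM SOS1 and 300 nM BODIPY-GDP, HEPES pH 7.5 with MgCl2. TR-FRET (520/490 nm) read after 60 min; normalized to DMSO and full-inhibition control, IC50 from 4-parameter Hill fit.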

[5] = read-out: KRas(wt) GDP HTRF IC50

Compound	IC50 [1] [nM]	IC50 (KRAS G12D) [nM]	IC50 (KRAS WT [2]) [nM]	IC50 ([1]; Homo sapiens, NCI-H1975, 168 h) [nM]	IC50 [3] [nM]	IC50 ([3]; Homo sapiens, HPAC, 168 h) [nM]	IC50 (KRAS WT [4]; read-out: KRas HTRF IC50) [nM]	IC50 (KRAS WT [4]; [5]) [nM]
C[C@@H]1Oc2nc(-c3c(Cl)c(N)c(F)c(F)c3C(F)(F)F)c(F)c3nc(OC[C@@]45CCCN4C[C@H](F)C5)nc(c23)N2C[C@H]3CC[C@H](N3)[C@@H]12 (atropisomer, axis not shown; (aS)) [Compound 106, 2-Chloro-5,6-difluoro-3-((5S,5aS,6S,9R)-1-fluoro-12-(((2R,7aS)-2-fluorotetrahydro-1H-pyrrolizin-7a(5H)-yl)methoxy)-5-methyl-5a,6,7,8,9,10-hexahydro-5H-4-oxa-3,10a,11,13,14-pentaaza-6,9-methanonaphtho[1,8-ab]heptalen-2-yl)-4-(trifluoromethyl)aniline]	622							
Cc1c(F)c(N)cc(-c2nc3c4c(nc(OC[C@H]5COC[C@H]6CCCN65)nc4c2F)N2C[C@H]4CC[C@H](N4)[C@H]2[C@H](C)O3)c1C(F)(F)F (single isomer, unassigned) [121 (isomer 1)]		0.68	108	1340				
Cc1c(F)c(N)cc(-c2nc3c4c(nc(OC[C@H]5CC[C@@H]6CN(C)C(=O)CN56)nc4c2F)N2C[C@H]4CC[C@H](N4)[C@H]2[C@H](C)O3)c1C(F)(F)F (single isomer, unassigned) [131 (isomer 4)]		1.14	195		90			
Cc1c(F)c(N)cc(-c2nc3c4c(nc(OC[C@@]56CCCN5C[C@H](F)[C@@H]6F)nc4c2F)N2C[C@H]4CC[C@H](N4)[C@H]2[C@H](C)O3)c1C(F)(F)F (single isomer, unassigned) [143 (isomer 3)]		0.43	47.3	1090				
Cc1c(F)c(N)cc(-c2nc3c4c(nc(OC[C@H]5C[C@@H]6COCCN65)nc4c2F)N2C[C@H]4CC[C@H](N4)[C@H]2[C@H](C)O3)c1C(F)(F)F (single isomer, unassigned) [159 (diast. 1)]		0.28	64	4310				
C[C@@H]1Oc2nc(-c3cc(N)c(F)cc3[C@H](C)C(F)F)c(F)c3nc(OC[C@@]45CCCN4C[C@H](F)C5)nc(c23)N2C[C@H]3CC[C@H](N3)[C@@H]12 (single isomer, unassigned) [181 (isomer 1)]		159	10900			2000		
CC(c1cc(F)c(N)cc1-c1nc2c3c(nc(OC[C@@]45CCCN4C[C@H](F)C5)nc3c1F)N1C[C@H]3CC[C@H](N3)[C@H]1[C@H](C)O2)C(F)F (single isomer, unassigned) [181 (isomer 2)]		50.4		7260		903	3030	
Cc1c(F)c(N)cc(-c2nc3c4c(nc(OC[C@@]56CCCN5C[C@H](F)C6)nc4c2F)N2C[C@H]4CC[C@H](N4)[C@H]2[C@H](C(F)F)O3)c1C(F)(F)F (single isomer, unassigned) [238 (isomer 1)]		7700				2000	3810	
Cc1nc(N)cc(-c2nc3c4c(nc(OC[C@]56CCN5CC(F)(F)C6)nc4c2F)N2C[C@H]4CC[C@H](N4)[C@H]2[C@H](C(F)(F)F)O3)c1C(F)(F)F (single isomer, unassigned) [252 (isomer 2)]		5.89		20000			159	
Cc1c(F)c(N)cc(-c2nc3c4c(nc(OC[C@@]56CCN(C)C5COC6)nc4c2F)N2C[C@H]4CC[C@H](N4)[C@H]2[C@H](C)O3)c1C(F)(F)F (single isomer, unassigned) [258 (isomer 1)]		0.09				5	14.9	
Cc1nc(N)cc(-c2nc3c4c(nc(OC[C@H]5N(C)C[C@@]56CC6(F)F)nc4c2F)N2C[C@H]4CC[C@H](N4)[C@H]2[C@H](C(F)(F)F)O3)c1C(F)(F)F (single isomer, unassigned) [262 (isomer 2)]		7.02		20000			186	
Cc1c(F)c(N)cc(-c2nc3c4c(nc(OC[C@@H]5C[C@@H](F)[C@H]6CCCN56)nc4c2F)N2C[C@H]4CC[C@H](N4)[C@H]2[C@H](C)O3)c1C(F)(F)F (single isomer, unassigned) [Compound 160 (diast. 1)]		0.14	31.3	1000				
CCc1cccc2cc(O)cc(-c3nc4c5c(nc(OC[C@@]67CCCN6C[C@H](F)C7)nc5c3F)N3C[C@H]5CC[C@H](N5)[C@H]3[C@H](C)O4)c12 [Compound 10, 5-ethyl-4-((5S,5aS,6S,9R)-1-fluoro-12-(((2R,7aS)-2-fluorotetrahydro-1H-pyrrolizin-7a(5H)-yl)methoxy)-5-methyl-5a,6,7,8,9,10-hexahydro-5H-4-oxa-3,10a,11,13,14-pentaaza-6,9-methanonaphtho[1,8-ab]heptalen-2-yl)naphthalen-2-ol]		0.082	13.3					6.46
Cc1cc(-c2nc3c4c(nc(OC[C@@]56CCCN5C[C@H](F)C6)nc4c2F)N2C[C@H]4CC[C@H](N4)[C@H]2[C@H](C)O3)cc(N)c1F [Compound 13, 2-fluoro-5-((5S,5aS,6S,9R)-1-fluoro-12-(((2R,7aS)-2-fluorotetrahydro-1H-pyrrolizin-7a(5H)-yl)methoxy)-5-methyl-5a,6,7,8,9,10-hexahydro-5H-4-oxa-3,10a,11,13,14-pentaaza-6,9-methanonaphtho[1,8-ab]heptalen-2-yl)-3-methylaniline]		30.7	1770					1540
C[C@@H]1Oc2nc(-c3cc(N)cc(F)c3C(F)(F)F)c(F)c3nc(OC[C@@]45CCCN4C[C@H](F)C5)nc(c23)N2C[C@H]3CC[C@H](N3)[C@@H]12 [Compound 17, 3-fluoro-5-((5S,5aS,6S,9R)-1-fluoro-12-(((2R,7aS)-2-fluorotetrahydro-1H-pyrrolizin-7a(5H)-yl)methoxy)-5-methyl-5a,6,7,8,9,10-hexahydro-5H-4-oxa-3,10a,11,13,14-pentaaza-6,9-methanonaphtho[1,8-ab]heptalen-2-yl)-4-(trifluoromethyl)aniline]		0.133	1.05					0.559
Cc1c(F)c(N)cc(-c2nc3c4c(nc(OC[C@@H]5CC[C@H]6COCCN65)nc4c2F)N2C[C@H]4CC[C@H](N4)[C@H]2[C@H](C)O3)c1C(F)(F)F [Compound 31, 2-fluoro-5-((5S,5aS,6S,9R)-1-fluoro-12-(((6S,8aS)-hexahydro-1H-pyrrolo[2,1-c][1,4]oxazin-6-yl)methoxy)-5-methyl-5a,6,7,8,9,10-hexahydro-5H-4-oxa-3,10a,11,13,14-pentaaza-6,9-methanonaphtho[1,8-ab]heptalen-2-yl)-3-methyl-4-(trifluoromethyl)aniline]		0.087	7.11					1.55
Cc1cc(N)c(F)c(-c2nc3c4c(nc(OC[C@@]56CCCN5C[C@H](F)C6)nc4c2F)N2C[C@H]4CC[C@H](N4)[C@H]2[C@H](C)O3)c1C(F)(F)F [Compound 34, 2-Fluoro-3-((5S,5aS,6S,9R)-1-fluoro-12-(((2R,7aS)-2-fluorotetrahydro-1H-pyrrolizin-7a(5H)-yl)methoxy)-5-methyl-5a,6,7,8,9,10-hexahydro-5H-4-oxa-3,10a,11,13,14-pentaaza-6,9-methanonaphtho[1,8-ab]heptalen-2-yl)-5-methyl-4-(trifluoromethyl)aniline]		0.235	4.29					2.13
C=C1CN2CCC[C@@]2(COc2nc3c4c(nc(-c5cc(O)cc6cccc(CC)c56)c(F)c4n2)O[C@@H](C)[C@@H]2[C@@H]4CC[C@H](CN32)N4)C1 [Compound 80]		0.068	3.48					3.39
